This is an account of results in patent US10844032B2, “Substituted benzofuran, benzothiophene and indole Mcl-1 inhibitors” (Vanderbilt University, priority 2012, dated 2020).

Molecules are shown by their SMILES. pKi: −log10 of the molar value.

recombinant Mcl-1 (residues 172-327), sequence (Q07820 172-327): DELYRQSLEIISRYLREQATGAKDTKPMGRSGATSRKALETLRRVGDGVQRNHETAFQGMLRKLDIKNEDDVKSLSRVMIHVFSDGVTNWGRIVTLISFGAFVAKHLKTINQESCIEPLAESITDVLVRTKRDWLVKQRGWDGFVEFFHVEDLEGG

One assay concerns the target recombinant Mcl-1 (residues 172-327) (Homo sapiens (Human), UniProt Q07820). Nature of the assay: Bak peptide fluorescence polarization anisotropy competition assay, Mcl-1. In kind it is binding. To be noted: Table 2, Ki range; FITC-Bak peptide 10 nM, Mcl-1 14 nM; read-out: Ki for inhibition of Mcl-1. A general note: Fluorescence polarisation rises when a labelled molecule tumbles more slowly, as on binding a larger partner.
The term pKi denotes the Ki on a negative log10 scale, so that one unit is a factor of ten. Consider `Cc1cc(OCCCc2c(C(=O)NS(=O)(=O)c3ccccc3)[nH]c3c(-c4ncccc4C(F)(F)F)cccc23)cc(C)c1Cl` [Example 102, 3-(3-(4-chloro-3,5-dimethylphenoxy)propyl)-N-(phenylsulfonyl)-7-(3-(trifluoromethyl)pyridin-2-yl)-1H-indole-2-carboxamide], for which the pKi was ≥ 7.00.

In the case of `Cc1cc(OCCCc2c(C(=O)NS(=O)(=O)c3ccccc3)[nH]c3c(-c4cnccc4C(F)(F)F)cccc23)cc(C)c1Cl` [Example 103, 3-(3-(4-chloro-3,5-dimethylphenoxy)propyl)-N-(phenylsulfonyl)-7-(4-(trifluoromethyl)pyridin-3-yl)-1H-indole-2-carboxamide], the pKi is ≥ 7.00.

Turning to `Cc1cc(OCCCc2c(C(=O)NS(=O)(=O)c3ccccc3)[nH]c3c(-c4ccncc4C(F)(F)F)cccc23)cc(C)c1Cl` [Example 104, 3-(3-(4-chloro-3,5-dimethylphenoxy)propyl)-N-(phenylsulfonyl)-7-(3-(trifluoromethyl)pyridin-4-yl)-1H-indole-2-carboxamide], the pKi was ≥ 7.00.

Regarding `Cc1cc(OCCCc2c(C(=O)NS(C)(=O)=O)[nH]c3cccc(Br)c23)cc(C)c1Cl` [Example 113, 4-bromo-3-(3-(4-chloro-3,5-dimethylphenoxy)propyl)-N-(methylsulfonyl)-1H-indole-2-carboxamide], the pKi is ≥ 7.00.

Take `Cc1cc(OCCCc2c(C(=O)NS(C)(=O)=O)[nH]c3cccc(C)c23)cc(C)c1Cl` [Example 116, 3-(3-(4-chloro-3,5-dimethylphenoxy)propyl)-4-methyl-N-(methylsulfonyl)-1H-indole-2-carboxamide]: the pKi is ≥ 7.00.

Turning to `Cc1cc(OCCCc2c(C(=O)NS(=O)(=O)c3ccccc3)[nH]c3c(-c4cnn(C)c4)c(Cl)ccc23)cc(C)c1Cl` [Example 121, 6-chloro-3-(3-(4-chloro-3,5-dimethylphenoxy)propyl)-7-(1-methyl-1H-pyrazol-4-yl)-N-(phenylsulfonyl)-1H-indole-2-carboxamide], the pKi was ≥ 7.00.

Regarding `Cc1cc(OCCCc2c(C(=O)NS(=O)(=O)c3ccccc3)[nH]c3c(-c4cnn(C)c4)cccc23)cc(C)c1Cl` [Example 123, 3-(3-(4-chloro-3,5-dimethylphenoxy)propyl)-7-(1-methyl-1H-pyrazol-4-yl)-N-(phenylsulfonyl)-1H-indole-2-carboxamide], the pKi was ≥ 7.00.

Turning to `CC(=O)N1CCN(c2ccc(OCc3nn(C)c(C)c3-c3cccc4c(CCCOc5cc(C)c(Cl)c(C)c5)c(C(=O)NS(=O)(=O)c5ccccc5)n(Cc5cccnc5)c34)cc2)CC1` [Example 124, 7-(3-((4-(4-acetylpiperazin-1-yl)phenoxy)methyl)-1,5-dimethyl-1H-pyrazol-4-yl)-3-(3-(4-chloro-3,5-dimethylphenoxy)propyl)-N-(phenylsulfonyl)-1-(pyridin-3-ylmethyl)-1H-indole-2-carboxamide], the pKi was ≥ 7.00.

As to `Cc1cc(OCCCc2c(C(=O)NS(=O)(=O)c3ccccc3)[nH]c3c(-c4c(CO)nn(C)c4C)cccc23)cc(C)c1Cl` [Example 127, 3-(3-(4-chloro-3,5-dimethylphenoxy)propyl)-7-(3-(hydroxymethyl)-1,5-dimethyl-1H-pyrazol-4-yl)-N-(phenylsulfonyl)-1H-indole-2-carboxamide], the pKi is ≥ 7.00.

For `COCc1nn(C)c(C)c1-c1cccc2c(CCCOc3cc(C)c(Cl)c(C)c3)c(C(=O)NS(=O)(=O)c3ccccc3)[nH]c12` [Example 130, 3-(3-(4-chloro-3,5-dimethylphenoxy)propyl)-7-(3-(methoxymethyl)-1,5-dimethyl-1H-pyrazol-4-yl)-N-(phenylsulfonyl)-1H-indole-2-carboxamide], the pKi is ≥ 7.00.

Still in this assay, the particulars now being: read-out: Ki for inhibition of Mcl-1.
With `CS(=O)(=O)NC(=O)c1[nH]c2cc(Cl)ccc2c1CCCOc1ccc(Cl)c(Cl)c1` [Example 105, 6-chloro-3-(3-(3,4-dichlorophenoxy)propyl)-N-(methylsulfonyl)-1H-indole-2-carboxamide], the pKi is 5.00 to 6.00.

As to `CS(=O)(=O)NC(=O)c1[nH]c2cc(Cl)ccc2c1CCCOc1cccc2c1CCC2` [Example 106, 6-chloro-3-(3-((2,3-dihydro-1H-inden-4-yl)oxy)propyl)-N-(methylsulfonyl)-1H-indole-2-carboxamide], the pKi was 5.00 to 6.00.

As to `CS(=O)(=O)NC(=O)c1[nH]c2cc(Cl)ccc2c1CCCOc1ccccc1Br` [Example 107, 3-(3-(2-bromophenoxy)propyl)-6-chloro-N-(methylsulfonyl)-1H-indole-2-carboxamide], the pKi is 5.00 to 6.00.

For `COc1cccc(OCCCc2c(C(=O)NS(C)(=O)=O)[nH]c3cc(Cl)ccc23)c1` [Example 108, 6-chloro-3-(3-(3-methoxyphenoxy)propyl)-N-(methylsulfonyl)-1H-indole-2-carboxamide], the pKi is 5.00 to 6.00.

`COc1ccc(OCCCc2c(C(=O)NS(C)(=O)=O)[nH]c3cc(Cl)ccc23)cc1` [Example 109, 6-chloro-3-(3-(4-methoxyphenoxy)propyl)-N-(methylsulfonyl)-1H-indole-2-carboxamide]: the pKi is 4.30 to 5.00.

Take `Cc1cc(OCCCc2c(C(=O)NS(C)(=O)=O)[nH]c3ccc(Cl)cc23)cc(C)c1Cl` [Example 110, 5-chloro-3-(3-(4-chloro-3,5-dimethylphenoxy)propyl)-N-(methylsulfonyl)-1H-indole-2-carboxamide]: the pKi is 6.00 to 6.30.

`CS(=O)(=O)NC(=O)c1[nH]c2ccc(Cl)cc2c1CCCOc1cccc2ccccc12` [Example 111, 5-chloro-N-(methylsulfonyl)-3-(3-(naphthalen-1-yloxy)propyl)-1H-indole-2-carboxamide]: the pKi is 5.00 to 6.00.

Consider `Cc1cc(OCCCc2c(C(=O)NS(C)(=O)=O)[nH]c3cc(Br)ccc23)cc(C)c1Cl` [Example 112, 6-bromo-3-(3-(4-chloro-3,5-dimethylphenoxy)propyl)-N-(methylsulfonyl)-1H-indole-2-carboxamide], for which the pKi is 6.30 to 6.52.

Take `CS(=O)(=O)NC(=O)c1[nH]c2cc(Br)ccc2c1CCCOc1cccc2ccccc12` [Example 114, 6-bromo-N-(methylsulfonyl)-3-(3-(naphthalen-1-yloxy)propyl)-1H-indole-2-carboxamide]: the pKi is 6.30 to 6.52.

For `CS(=O)(=O)NC(=O)c1[nH]c2cccc(Br)c2c1CCCOc1cccc2ccccc12` [Example 115, 4-bromo-N-(methylsulfonyl)-3-(3-(naphthalen-1-yloxy)propyl)-1H-indole-2-carboxamide], the pKi was 6.00 to 6.30.

On to `Cc1ccc2c(CCCOc3cc(C)c(Cl)c(C)c3)c(C(=O)NS(C)(=O)=O)[nH]c2c1` [Example 117, 3-(3-(4-chloro-3,5-dimethylphenoxy)propyl)-6-methyl-N-(methylsulfonyl)-1H-indole-2-carboxamide], for which the pKi was 6.30 to 6.52.

`Cc1ccc2c(CCCOc3cccc4ccccc34)c(C(=O)NS(C)(=O)=O)[nH]c2c1` [Example 118, 6-Methyl-N-(methylsulfonyl)-3-(3-(naphthalen-1-yloxy)propyl)-1H-indole-2-carboxamide]: the pKi was 5.00 to 6.00.

For `Cc1cc(OCCCc2c(C(=O)NS(C)(=O)=O)[nH]c3c(C)c(Cl)ccc23)cc(C)c1Cl` [Example 119, 6-chloro-3-(3-(4-chloro-3,5-dimethylphenoxy)propyl)-7-methyl-N-(methylsulfonyl)-1H-indole-2-carboxamide], the pKi is 6.52 to 7.00.

For the compound `Cc1cc(OCCCc2c(C(=O)NS(C)(=O)=O)[nH]c3c(C)c(Br)ccc23)cc(C)c1Cl` [Example 120, 6-bromo-3-(3-(4-chloro-3,5-dimethylphenoxy)propyl)-7-methyl-N-(methylsulfonyl)-1H-indole-2-carboxamide], the pKi is 5.00 to 6.00.

As for `Cc1cc(OCCCc2c(C(=O)NS(=O)(=O)c3ccccc3)[nH]c3c(-c4cnn(C)c4)ccc(Cl)c23)cc(C)c1Cl` [Example 122, 4-chloro-3-(3-(4-chloro-3,5-dimethylphenoxy)propyl)-7-(1-methyl-1H-pyrazol-4-yl)-N-(phenylsulfonyl)-1H-indole-2-carboxamide], the pKi was 6.30 to 6.52.

As for `CC(=O)N1CCN(c2ccc(OCc3nn(C)c(C)c3-c3cccc4c(CCCOc5cc(C)c(Cl)c(C)c5)c(C(=O)NS(C)(=O)=O)n(Cc5cccnc5)c34)cc2)CC1` [Example 125, 7-(3-((4-(4-acetylpiperazin-1-yl)phenoxy)methyl)-1,5-dimethyl-1H-pyrazol-4-yl)-3-(3-(4-chloro-3,5-dimethylphenoxy)propyl)-N-(methylsulfonyl)-1-(pyridin-3-ylmethyl)-1H-indole-2-carboxamide], the pKi is 6.52 to 7.00.

As to `Cc1cc(OCCCc2c(C(=O)NS(C)(=O)=O)[nH]c3c(-c4c(CO)nn(C)c4C)cccc23)cc(C)c1Cl` [Example 126, 3-(3-(4-chloro-3,5-dimethylphenoxy)propyl)-7-(3-(hydroxymethyl)-1,5-dimethyl-1H-pyrazol-4-yl)-N-(methylsulfonyl)-1H-indole-2-carboxamide], the pKi is 6.52 to 7.00.

Regarding `COCc1nn(C)c(C)c1-c1cccc2c(CCCOc3cc(C)c(Cl)c(C)c3)c(C(=O)NS(=O)(=O)c3ccccc3)n(Cc3cccnc3)c12` [Example 128, 3-(3-(4-Chloro-3,5-dimethylphenoxy)propyl)-7-(3-(methoxymethyl)-1,5-dimethyl-1H-pyrazol-4-yl)-N-(phenylsulfonyl)-1-(pyridin-3-ylmethyl)-1H-indole-2-carboxamide], the pKi is 6.52 to 7.00.

`COCc1nn(C)c(C)c1-c1cccc2c(CCCOc3cc(C)c(Cl)c(C)c3)c(C(=O)NS(=O)(=O)c3ccccc3)n(C)c12` [Example 129, 3-(3-(4-chloro-3,5-dimethylphenoxy)propyl)-7-(3-(methoxymethyl)-1,5-dimethyl-1H-pyrazol-4-yl)-1-methyl-N-(phenylsulfonyl)-1H-indole-2-carboxamide]: the pKi was 6.52 to 7.00.

Consider `Cc1cc(OCCCc2c(C(=O)NS(=O)(=O)c3ccc(Oc4ccccc4)cc3)[nH]c3ccccc23)cc(C)c1Cl` [Example 132, 3-(3-(4-chloro-3,5-dimethylphenoxy)propyl)-N-((4-phenoxyphenyl)sulfonyl)-1H-indole-2-carboxamide], for which the pKi was 6.30 to 6.52.
